{
  "source": "paper PMC9157788",
  "about": "“Design, Synthesis, and Apoptosis-Promoting Effect Evaluation of Rhopaladins’ Analog 4-Arylidene-5-Oxopyrrolidine Derivatives” (Frontiers in Chemistry, 2022)",
  "key": {"SiHa cells": {"tested_on": "SiHa cells", "test": "MTT cell viability assay, SiHa", "type": "cell-based", "details": "Homo sapiens, 48 h, read-out: Half inhibitory concentration (IC50), SiHa", "experimental": "(§1) HepG2 (human epidermoid hepatocellular carcinoma cell), 7402 (human epidermoid hepatocellular carcinoma cell), C-33A (human epidermoid cervical carcinoma cell), and HeLa (human epidermoid cervical adenocarcinoma cell) were incubated in Dulbecco’s modified Eagle’s medium (DMEM), which was purchased from Gibco (Grand Island, NY, United States). SiHa cells (human epidermoid cervical squamous cell carcinoma) were incubated in minimum essential medium (MEM, also from Gibco). CaSki (human epidermoid cervical carcinoma cell) and LO2 (human normal liver cell) were incubated in minimum essential medium (MEM, also from Gibco). All cells were maintained at 37°C in a humidified incubator with 5% carbon dioxide, and the media contained 10% fetal bovine serum (FBS, Corning, United States) and 1% penicillin–streptomycin antibiotic solution (Corning, United States). SiHa and CaSki were bought from the China Center for Type Culture Collection (CCTCC). The other five types of cancer cell lines were obtained from the Experiment Center of Medicine, Sinopharm Dongfeng Hospital, Hubei University of Medicine. The compounds were dissolved in dimethyl sulfoxide (DMSO, MP Biomedicals, United States), and cisplatin was purchased from Aladdin, Shanghai, China. The control (0 μM) group was treated with DMSO only in the same conditions, and the DMSO content in the medium was less than 0.1%.\n(§2) Cell viability was measured by a 3-(4,5-dimethylthiazol-2-yl)-2,5-diphenyltetrazolium bromide (MTT, MultiSciences, China) assay. The specific experimental steps referred to our previous research ([Zhu et al., 2020]). For each cell line, cells were digested and seeded in 96-well plates at a density of 1 × 10^3 cells/well. […] Then, the formed formazan crystals were dissolved in DMSO, and the plates were estimated in a […] microplate reader (BioTek Inc., Bio-Tek MQX200) at a wavelength of 490 nm. Optical density (OD) values were obtained, and the inhibition rate and IC50 of each compound on different cells were calculated by GraphPad Prism 8.0.1 software. […]"}, "7402 cells": {"tested_on": "7402 cells", "test": "Annexin V-FITC/PI flow cytometry apoptosis assay, 7402", "type": "cell-based, human", "details": "48 h; for total apoptosis rate: DMSO control 8.96 ± 3.05%", "experimental": "The effect of RPDPRH on apoptosis was performed using the Annexin V-FITC/PI Apoptosis kit (MultiSciences, China), following the manufacturer’s protocol. The cells were digested, dispersed, and plated into six-well plates with 2 × 10^4 cells/well and treated with RPDPRH (0, 6.25, 12.5, and 25 μM) at various concentrations for 48 h. Upon completion of the treatment, cells were harvested, washed with cool phosphate buffered solution (PBS, Gibco, United States) (0.01 M, pH=7.4), and re-suspended in a 500 μl binding buffer. Annexin V-FITC (5 μl) and PI (10 μl) were added into the cell suspension, and then, the suspension was incubated at room temperature away from light for 5 min. Cells were analyzed by using a flow cytometer (Agilent NovoCyte, China) immediately, and the results of the apoptosis were analyzed by FlowJo software."}, "LO2 cells": {"tested_on": "LO2 cells", "test": "MTT cell viability assay, normal liver LO2", "type": "cell-based, human", "experimental": "as §1\nCell viability was measured by a 3-(4,5-dimethylthiazol-2-yl)-2,5-diphenyltetrazolium bromide (MTT, MultiSciences, China) assay. The specific experimental steps referred to our previous research ([Zhu et al., 2020]). For each cell line, cells were digested and seeded in 96-well plates at a density of 1 × 10^3 cells/well. After 24 h of culture, the cells were adherent and treated with varying concentrations of RPDPRH (0, 3.125, 6.25, 12.5, 25, 50, and 100 μM). Cells without treatment were used as a solvent control group (0 μM, DMSO) and those with cisplatin treatment served as a positive control. After 48 h of treatment, MTT solution was added and incubated for 4 h. Then, the formed formazan crystals were dissolved in DMSO, and the plates were estimated in a […] microplate reader (BioTek Inc., Bio-Tek MQX200) at a wavelength of 490 nm. Optical density (OD) values were obtained, and the inhibition rate and IC50 of each compound on different cells were calculated by GraphPad Prism 8.0.1 software. Cell inhibition rate (%) = 1− [(OD experimental-OD blank)/(OD control-OD blank)] × 100%."}, "C-33A cells": {"tested_on": "C-33A cells", "test": "MTT cell viability assay, C-33A", "type": "cell-based", "details": "Homo sapiens, 48 h, read-out: Half inhibitory concentration (IC50), C-33A", "experimental": "as §1, §2"}, "CaSki cells": {"tested_on": "CaSki cells", "test": "MTT cell viability assay, CaSki", "type": "cell-based", "details": "Homo sapiens, Ca-Ski, 48 h, read-out: Half inhibitory concentration (IC50), CaSki", "experimental": "as §1, §2"}, "HeLa cells": {"tested_on": "HeLa cells", "test": "MTT cell viability assay, HeLa", "type": "cell-based", "details": "Homo sapiens, 48 h, read-out: Half inhibitory concentration (IC50), HeLa", "experimental": "as §1, §2"}, "HepG2 cells": {"tested_on": "HepG2 cells", "test": "MTT cell viability assay, HepG2", "type": "cell-based", "details": "Homo sapiens, 48 h, read-out: Half inhibitory concentration (IC50), HepG2", "experimental": "as §1, §2"}, "Bcl-2": {"tested_on": "Bcl-2", "test": "Western blot, Bcl-2 expression in HepG2 cells", "type": "cell-based, human", "details": "HepG2, 25 μM, 48 h, vs DMSO control, p < 0.01", "experimental": "The experimental steps of the Western blotting assay referred to Lin’s study ([Lin et al., 2020]). After treatment with different concentrations of RPDPRH (0, 6.25, 12.5, and 25 μM) for 48 h, hepatocarcinoma cells were lysed with an ice-cold RIPA protein lysis buffer (Beyotime, China). Total cell lysates were prepared with RIPA lysis buffer containing phosphatase inhibitors (Roche, China) and protease inhibitors (MedChemExpress, United States). Total cell lysates were centrifuged at 10,000 g for 10 min at 4°C to obtain the supernatant. The protein concentration was detected according to the BCA Protein Assay Kit (Beyotime, China). Then, 5× SDS loading buffer (Beyotime, China) was added to the supernatant and boiled at 100°C for 10 min. The obtained protein samples were stored at −80°C.\nThe protein samples (20 μg) were resolved on 4% concentration glue and 12% separating glue and prepared according to the SDS-PAGE Gel Quick Preparation Kit procedure (Beyotime, China). After electrophoresis at 80 V for 1.5–2 h, the proteins were wet-transferred onto a polyvinylidene difluoride membrane (PVDF, Millipore) at 300 mA for 1–1.5 h. […]"}},
  "data": [
    {"smiles": "O=C1/C(=C/c2ccc(Cl)cc2)CC(/C=C/c2ccc(Cl)cc2)(C(=O)NC2CCCCC2)N1c1ccc(F)cc1", "note": "(centres unmarked) [RPDPRH, (2E, 4E)-4-(4-chlorobenzylidene)-2-(4-chlorostyryl)-N-cyclohexyl-1-(4-fluorophenyl)-5-oxopyrrolidine-2-carboxamide]", "values": [
      {"measurement": "IC50", "setting": "SiHa cells", "value": 17.7, "unit": "µM"},
      {"measurement": "early apoptotic cell (LR) rate", "setting": "7402 cells; 7402, 6.25 μM", "value": 4.37, "unit": "%"},
      {"measurement": "late apoptotic (UR) rate", "setting": "7402 cells; 7402, 6.25 μM", "value": 9.34, "unit": "%"},
      {"measurement": "total apoptosis rate", "setting": "7402 cells; 7402, 6.25 μM", "value": "13.71 ± 1.30", "unit": "%"},
      {"measurement": "early apoptotic cell (LR) rate", "setting": "7402 cells; 7402, 12.5 μM", "value": 8.53, "unit": "%"},
      {"measurement": "late apoptotic (UR) rate", "setting": "7402 cells; 7402, 12.5 μM", "value": 15.30, "unit": "%"},
      {"measurement": "early apoptotic cell (LR) rate", "setting": "7402 cells; 7402, 25 μM", "value": 11.40, "unit": "%"},
      {"measurement": "late apoptotic (UR) rate", "setting": "7402 cells; 7402, 25 μM", "value": 24.60, "unit": "%"},
      {"measurement": "total apoptosis rate", "setting": "7402 cells; 7402, 25 μM", "value": "36.00 ± 2.67", "unit": "%"},
      {"measurement": "IC50", "setting": "LO2 cells; Homo sapiens, L02, normal liver LO2 cells, 48 h, read-out: Half inhibitory concentration (IC50), LO2", "value": "> 100", "unit": "µM"},
      {"measurement": "toxicity to the normal hepatic LO2 cells", "setting": "LO2 cells; LO2 cells, insignificant inhibition at 100 µM (Table 1 footnote b)", "value": "no significant toxicity"},
      {"measurement": "melting point", "value": "128 to 130", "unit": "°C"},
      {"measurement": "IC50", "setting": "C-33A cells", "value": 4.66, "unit": "µM"},
      {"measurement": "IC50", "setting": "CaSki cells", "value": 6.42, "unit": "µM"},
      {"measurement": "IC50", "setting": "HeLa cells", "value": 15.2, "unit": "µM"},
      {"measurement": "IC50", "setting": "HepG2 cells", "value": 12.4, "unit": "µM"},
      {"measurement": "expression of anti-apoptotic protein Bcl-2", "setting": "Bcl-2", "value": "decrease"}
    ]}
  ]
}
